Test results as given in the NIST ThermoML archive (doi:10.1016/j.fluid.2014.01.038).

How the values were obtained:
[1] = cn = amount concentration of the nth substance listed, in mol/dm3; conditions: 101 kPa, Liquid, Alternating current cell with electrodes
[2] = mn = molality of the nth substance listed, in mol/kg; conditions: 288.15 K, 101 kPa, Liquid, Pycnometric method

CCCCCCCCCCCCn1cc[n+](C)c1.[Br-] [1-dodecyl-3-methylimidazolium bromide] + O
electrical conductivity [S/m], [1]
Conditions | 283.15 K | 288.15 K | 293.15 K | 298.15 K | 303.15 K | 308.15 K
c1 = 0.0006629 | 0.00432 | 0.00491 | 0.0055 | 0.00613 | 0.00676 | 0.00742
c1 = 0.001064 | 0.00695 | 0.00789 | 0.00894 | 0.00994 | 0.011 | 0.0121
c1 = 0.001497 | 0.0098 | 0.0111 | 0.0125 | 0.0139 | 0.0154 | 0.0169
c1 = 0.00184 | 0.012 | 0.0136 | 0.0153 | 0.017 | 0.0188 | 0.0201
c1 = 0.002146 | 0.014 | 0.0158 | 0.0178 | 0.0198 | 0.0216 | 0.0237
c1 = 0.00249 | 0.0158 | 0.0178 | 0.0201 | 0.0222 | 0.0247 | 0.0273
c1 = 0.002909 | 0.0168 | 0.019 | 0.0212 | 0.0239 | 0.027 | 0.0304
c1 = 0.003361 | 0.0175 | 0.0198 | 0.0222 | 0.0251 | 0.0284 | 0.0321
c1 = 0.003884 | 0.0183 | 0.0204 | 0.0233 | 0.0264 | 0.0299 | 0.0338
c1 = 0.00448 | 0.0192 | 0.0215 | 0.0244 | 0.0279 | 0.0315 | 0.0358
c1 = 0.004998 | 0.0199 | 0.0224 | 0.0256 | 0.0291 | 0.033 | 0.0374
c1 = 0.005625 | 0.0206 | 0.0236 | 0.0269 | 0.0305 | 0.0347 | 0.0394

CC(C)C[C@H](NC(=O)CN)C(=O)O [glycyl-L-leucine] + O
[2]
Conditions | mass density [kg/m3]
m1 = 0.03301 | 1000.8
m1 = 0.04936 | 1001.65
m1 = 0.05894 | 1002.14
m1 = 0.06889 | 1002.67
m1 = 0.07838 | 1003.17
m1 = 0.08821 | 1003.69
m1 = 0.09745 | 1004.12

CC(C)[C@H](NC(=O)CN)C(=O)O [glycyl-L-valine] + O
[2]
Conditions | mass density [kg/m3]
m1 = 0.04051 | 1001.29
m1 = 0.08097 | 1003.45
m1 = 0.1203 | 1005.55
m1 = 0.1403 | 1006.63
m1 = 0.1594 | 1007.68
m1 = 0.1799 | 1008.79
m1 = 0.1995 | 1009.84

NCC(=O)NCC(=O)O [glycylglycine] + O
[2]
Conditions | mass density [kg/m3]
m1 = 0.06148 | 1002.65
m1 = 0.09135 | 1004.36
m1 = 0.1538 | 1007.96
m1 = 0.1823 | 1009.6
m1 = 0.2128 | 1011.36
m1 = 0.2534 | 1013.73
m1 = 0.3028 | 1016.61
